From patent US20240254114A1, “PREPARATION OF FUSED AZOLE DERIVATIVES AS NOVEL DIACYLGLYCERIDE 0-ACYLTRANSFERASE 2 INHIBITORS” (Merck Sharp & Dohme LLC, priority 2022, published 2024)

target: human DGAT2 (Homo sapiens (Human), UniProt Q96PD7); assay: DGAT2 Enzymatic Activity Assay; settings: Human DGAT2 IC50, hDGAT2 membrane prep from Sf-9 cells; 13C18-triolein product by LC/MS/MS
Sequence (Q96PD7 whole entry): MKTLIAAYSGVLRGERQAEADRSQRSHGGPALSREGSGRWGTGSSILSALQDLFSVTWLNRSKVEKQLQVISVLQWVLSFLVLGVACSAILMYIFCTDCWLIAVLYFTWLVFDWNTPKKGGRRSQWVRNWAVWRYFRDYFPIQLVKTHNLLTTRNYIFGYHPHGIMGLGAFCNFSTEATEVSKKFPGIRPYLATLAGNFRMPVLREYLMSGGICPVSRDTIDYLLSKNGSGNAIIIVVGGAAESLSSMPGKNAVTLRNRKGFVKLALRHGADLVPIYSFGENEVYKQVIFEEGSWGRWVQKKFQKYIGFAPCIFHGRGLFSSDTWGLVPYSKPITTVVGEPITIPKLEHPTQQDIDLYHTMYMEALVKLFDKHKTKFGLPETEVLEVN

Row | Compound | IC50 [µM]
1 | Cn1c(C(=O)NC2(C)CCS(=O)(=O)CC2)nc2ccc(OCC(CC(F)(F)F)OCC(F)F)nc21 (single isomer, unassigned) [Example 63b, 5-[2-(2,2-difluoroethoxy)-4,4,4-trifluoro-butoxy]-3-methyl-N-(4-methyl-1,1-dioxo-thian-4-yl)imidazo[4,5-b]pyridine-2-carboxamide] | 0.0008
2 | CC1(NC(=O)c2nc3cc(Oc4ncccc4OCC(F)(F)F)ccc3o2)CCS(=O)(=O)CC1 [Example 10, N-(4-methyl-1,1-dioxidotetrahydro-2H-thiopyran-4-yl)-5-((3-(2,2,2-trifluoroethoxy)pyridin-2-yl)oxy)benzo[d]oxazole-2-carboxamide] | 0.941
3 | Cc1cc(Oc2ncc(Cl)cc2OCC(F)F)nc2c1nc(C(=O)NC1(C)CCS(=O)(=O)CC1)n2C [Example 49, 5-[[5-chloro-3-(2,2-difluoroethoxy)-2-pyridyl]oxy]-3,7-dimethyl-N-(4-methyl-1,1-dioxo-thian-4-yl)imidazo[4,5-b]pyridin-4-ium-2-carboxamide] | 0.0044
4 | Cn1c(C(=O)NC2(C)CCS(=O)(=O)CC2)nc2ccc(OCC(CC(F)(F)F)OC(F)F)nc21 (single isomer, unassigned) [Example 62a, 5-[2-(difluoromethoxy)-4,4,4-trifluoro-butoxy]-3-methyl-N-(4-methyl-1,1-dioxo-thian-4-yl)imidazo[4,5-b]pyridine-2-carboxamide] | 1.33
5 | Cn1c(C(=O)NC2(C)CCS(=O)(=O)CC2)nc2ccc(OCC(OCC(F)F)C(F)(F)F)nc21 (single isomer, unassigned) [Example 64a, 5-[2-(2,2-difluoroethoxy)-3,3,3-trifluoro-propoxy]-3-methyl-N-(4-methyl-1,1-dioxo-thian-4-yl)imidazo[4,5-b]pyridine-2-carboxamide] | 1.65
6 | CC(C)n1c(C(=O)NC2(C)CCS(=O)(=O)CC2)nc2nc(Oc3ncc(Cl)cc3OCC(F)F)ccc21 [Example 51, 5-((5-chloro-3-(2,2-difluoroethoxy)pyridin-2-yl)oxy)-1-isopropyl-N-(4-methyl-1,1-dioxidotetrahydro-2H-thiopyran-4-yl)-1H-imidazo[4,5-b]pyridine-2-carboxamide] | 0.533

The remaining lines, values ahead:

Row | IC50 [µM] | Compound
7 | 0.215 | Cn1c(C(=O)NC2(C)CCS(=O)(=O)CC2)nc2ccc(OCC(OCC(F)F)C(F)F)nc21 (single isomer, unassigned) [Example 65a, 5-[2-(2,2-difluoroethoxy)-3,3-difluoro-propoxy]-3-methyl-N-(4-methyl-1,1-dioxo-thian-4-yl)imidazo[4,5-b]pyridine-2-carboxamide]
8 | 0.039 | Cc1nc2nc(C(=O)NC3(C)CCS(=O)(=O)CC3)n(C)c2cc1Oc1ncc(Cl)cc1OCC(F)F [Example 86, 6-[[5-Chloro-3-(2,2-difluoroethoxy)-2-pyridyl]oxy]-1,5-dimethyl-N-(4-methyl-1,1-dioxo-thian-4-yl)imidazo[4,5-b]pyridine-2-carboxamide]
9 | 0.0028 | Cn1c(C(=O)NC2(C)CCS(=O)(=O)CC2)nc2ccc(OCC(OCC(F)F)C(F)F)nc21 (single isomer, unassigned) [Example 65b, 5-[2-(2,2-difluoroethoxy)-3,3-difluoro-propoxy]-3-methyl-N-(4-methyl-1,1-dioxo-thian-4-yl)imidazo[4,5-b]pyridine-2-carboxamide]
10 | 0.0041 | Cn1c(C(=O)NC2(C)CCS(=O)(=O)CC2)nc2ncc(Oc3ncc(Cl)cc3OCC(F)F)nc21 [Example 90, 6-((5-Chloro-3-(2,2-difluoroethoxy)pyridin-2-yl)oxy)-1-methyl-N-(4-methyl-1,1-dioxidotetrahydro-2H-thiopyran-4-yl)-1H-imidazo[4,5-b]pyrazine-2-carboxamide]
11 | 0.0033 | Cn1c(C(=O)NC2(C)CCS(=O)(=O)CC2)nc2cnc(Oc3ncc(Cl)cc3OCC(F)F)c(F)c21 [Example 76, 6-[[5-Chloro-3-(2,2-difluoroethoxy)-2-pyridyl]oxy]-7-fluoro-1-methyl-N-(4-methyl-1,1-dioxo-thian-4-yl)imidazo[4,5-c]pyridine-2-carboxamide]

same assay, conditions: read-out: Human DGAT2 IC50; hDGAT2 membrane prep from Sf-9 cells; 13C18-triolein product by LC/MS/MS

Row | Compound | IC50 [µM]
12 | Cn1c(C(=O)NC2(C)CS(=O)(=O)C2)nc2ccc(Oc3ncc(F)cc3OCC(F)F)nc21 [Example 36, 5-[[3-(2,2-difluoroethoxy)-5-fluoro-2-pyridyl]oxy]-3-methyl-N-(3-methyl-1,1-dioxo-thietan-3-yl)imidazo[4,5-b]pyridine-2-carboxamide] | 0.042
13 | Cn1c(C(=O)NC2(C)CCS(=O)(=O)CC2)nc2cc(F)c(Oc3ncc(F)cc3OCC(C)(F)F)nc21 [Example 43, 5-[[3-(2,2-difluoropropoxy)-5-fluoro-2-pyridyl]oxy]-6-fluoro-3-methyl-N-(4-methyl-1,1-dioxo-thian-4-yl)imidazo[4,5-b]pyridine-2-carboxamide] | 0.034
14 | CC1(NC(=O)c2nc3ccc(Oc4ncc(Cl)cc4OCC(F)(F)F)cc3o2)CCS(=O)(=O)CC1 [Example 3, 6-[[5-chloro-3-(2,2,2-trifluoroethoxy)-2-pyridyl]oxy]-N-(4-methyl-1,1-dioxo-thian-4-yl)-1,3-benzoxazole-2-carboxamide] | 0.063
15 | CCC(COc1ccc2nc(C(=O)NC3(C)CCS(=O)(=O)CC3)n(C)c2n1)OCC(C)(F)F (stereo not shown) [Example 61, 5-[2-(2,2-difluoropropoxy)butoxy]-3-methyl-N-(4-methyl-1,1-dioxo-thian-4-yl)imidazo[4,5-b]pyridine-2-carboxamide] | 0.044
16 | Cc1cc2nc(C(=O)NC3(C)CCS(=O)(=O)CC3)n(C)c2nc1Oc1ncc(F)cc1OCC(F)F [Example 48, 5-[[3-(2,2-difluoroethoxy)-5-fluoro-2-pyridyl]oxy]-3,6-dimethyl-N-(4-methyl-1,1-dioxo-thian-4-yl)imidazo[4,5-b]pyridine-2-carboxamide] | 0.0063
17 | CO[C@]1(C(F)(F)F)C[C@@H](NC(=O)c2nc3ccc(Oc4ncc(Cl)cc4OCC(F)(F)F)cc3o2)C1 [Example 7, 6-[[5-chloro-3-(2,2,2-trifluoroethoxy)-2-pyridyl]oxy]-N-[3-methoxy-3-(trifluoromethyl)cyclobutyl]-1,3-benzoxazole-2-carboxamide] | 1.41

Next, values leading:

Row | IC50 [µM] | Compound
18 | 0.105 | Cn1c(C(=O)NC2(C)CCS(=O)(=O)CC2)nc2cnc(Oc3nccnc3OCC(F)(F)F)cc21 [Example 69, 1-methyl-N-(4-methyl-1,1-dioxo-thian-4-yl)-6-[3-(2,2,2-trifluoroethoxy)pyrazin-2-yl]oxy-imidazo[4,5-c]pyridine-2-carboxamide]
19 | 0.027 | Cn1c(C(=O)NC2(C)CCS(=O)(=O)CC2)nc2cnc(Oc3ncc(F)cc3OCC(F)(F)F)cc21 [Example 68, 6-[[5-fluoro-3-(2,2,2-trifluoroethoxy)-2-pyridyl]oxy]-1-methyl-N-(4-methyl-1,1-dioxo-thian-4-yl)imidazo[4,5-c]pyridine-2-carboxamide]
20 | 0.269 | Cn1c(C(=O)NC2(C)CS(=O)(=O)C2)nc2cnc(Oc3ncc(F)cc3OCC(F)F)cc21 [Example 71, 6-[[3-(2,2-difluoroethoxy)-5-fluoro-2-pyridyl]oxy]-1-methyl-N-(3-methyl-1,1-dioxo-thietan-3-yl)imidazo[4,5-c]pyridine-2-carboxamide]
21 | 0.0033 | O=C(N[C@H]1CCCC(F)(F)[C@@H]1O)c1nc2ccc(Oc3ncc(Cl)cc3OCC(F)F)nc2s1 [Example 96, 5-((5-chloro-3-(2,2-difluoroethoxy)pyridin-2-yl)oxy)-N-((1S,2R)-3,3-difluoro-2-hydroxycyclohex-yl)thiazolo[5,4-b]pyridine-2-carboxamide]
22 | 0.012 | Cn1c(C(=O)NC2(C)CCS(=O)(=O)CC2)nc2ncc(Oc3ncc(F)cc3OCC(F)(F)F)cc21 [Example 83, 6-[[5-fluoro-3-(2,2,2-trifluoroethoxy)-2-pyridyl]oxy]-1-methyl-N-(4-methyl-1,1-dioxo-thian-4-yl)imidazo[4,5-b]pyridine-2-carboxamide]
